Source: publication PMC7594079, “Insights into the Function and Evolution of Taste 1 Receptor Gene Family in the Carnivore Fish Gilthead Seabream (Sparus aurata)” (International Journal of Molecular Sciences, 2020)

Biological target: T1, saT1R1/R3 (Sparus aurata, UniProt A0A671TNH8+A0A671VZB3)
T1 sequence (A0A671TNH8 23-847): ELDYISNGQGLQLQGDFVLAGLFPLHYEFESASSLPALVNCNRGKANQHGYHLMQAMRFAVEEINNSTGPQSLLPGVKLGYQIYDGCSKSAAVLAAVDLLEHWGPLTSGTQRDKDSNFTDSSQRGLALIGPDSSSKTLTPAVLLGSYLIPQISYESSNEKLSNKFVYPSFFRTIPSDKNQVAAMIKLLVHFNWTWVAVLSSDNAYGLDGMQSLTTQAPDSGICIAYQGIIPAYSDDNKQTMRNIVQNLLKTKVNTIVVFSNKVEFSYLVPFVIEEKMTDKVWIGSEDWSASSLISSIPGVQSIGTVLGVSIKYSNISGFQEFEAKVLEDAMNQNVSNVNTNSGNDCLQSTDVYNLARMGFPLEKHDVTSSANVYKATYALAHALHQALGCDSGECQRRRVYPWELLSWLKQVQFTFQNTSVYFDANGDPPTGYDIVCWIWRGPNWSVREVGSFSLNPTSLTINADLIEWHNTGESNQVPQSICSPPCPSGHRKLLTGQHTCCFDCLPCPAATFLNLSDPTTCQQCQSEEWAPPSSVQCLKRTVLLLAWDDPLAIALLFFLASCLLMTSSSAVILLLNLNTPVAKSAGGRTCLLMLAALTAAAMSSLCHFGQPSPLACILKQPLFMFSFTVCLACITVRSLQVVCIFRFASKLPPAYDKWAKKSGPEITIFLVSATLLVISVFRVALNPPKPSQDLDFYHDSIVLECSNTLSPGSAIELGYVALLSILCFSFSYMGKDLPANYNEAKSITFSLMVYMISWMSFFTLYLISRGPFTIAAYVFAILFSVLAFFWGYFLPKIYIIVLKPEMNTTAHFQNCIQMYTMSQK
T1 sequence (A0A671VZB3 24-860): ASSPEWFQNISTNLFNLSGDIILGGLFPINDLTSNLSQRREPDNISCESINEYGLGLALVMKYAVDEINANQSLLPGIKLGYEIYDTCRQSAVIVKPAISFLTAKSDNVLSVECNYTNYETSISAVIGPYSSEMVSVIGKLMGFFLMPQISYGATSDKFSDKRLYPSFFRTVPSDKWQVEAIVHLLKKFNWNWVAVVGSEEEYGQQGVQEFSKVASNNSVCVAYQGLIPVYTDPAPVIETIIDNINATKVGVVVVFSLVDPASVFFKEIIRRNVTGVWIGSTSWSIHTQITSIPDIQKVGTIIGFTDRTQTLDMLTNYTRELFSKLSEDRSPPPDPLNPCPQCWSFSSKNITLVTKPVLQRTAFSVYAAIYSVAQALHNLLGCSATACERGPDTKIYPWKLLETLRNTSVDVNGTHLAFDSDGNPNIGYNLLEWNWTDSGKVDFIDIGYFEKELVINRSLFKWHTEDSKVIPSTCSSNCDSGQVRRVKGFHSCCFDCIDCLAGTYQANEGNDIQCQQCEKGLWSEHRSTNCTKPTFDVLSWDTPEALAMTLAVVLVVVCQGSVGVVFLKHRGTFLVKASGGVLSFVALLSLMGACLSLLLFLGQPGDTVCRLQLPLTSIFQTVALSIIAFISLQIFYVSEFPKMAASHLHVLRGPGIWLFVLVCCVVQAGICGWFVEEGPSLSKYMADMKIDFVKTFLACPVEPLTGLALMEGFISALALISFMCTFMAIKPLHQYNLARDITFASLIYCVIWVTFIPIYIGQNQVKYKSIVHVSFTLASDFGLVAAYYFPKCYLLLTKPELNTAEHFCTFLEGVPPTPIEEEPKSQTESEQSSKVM
Experiment: saT1R1/R3 heterodimer transiently transfected in stable pGL3-NFAT-luc-HEK293 (Cl.3) cells, luciferase reporter
Format: cell-based
Conditions: as molarity; decimal comma
Source text: Figure 6 Amino acid Log-dose response curves of activation in heterologous co-transfected (Cl.3) cells with saT1R1/3 (green dots), saT1R2a/3 (red squares) and saT1R2b/3 (black triangles) heterodimers. Evaluation of L-AA responses was based on the RLU mean ± SEM of four independent determinations normalized to the mean response of the same transfections stimulated with reduced assay medium (Basal Medium Eagle w/o L-glutamate (BME) + 1% FBS), and expressed as the percentage relative to basal levels (BL).
HEK293 cells were cultured in standard medium DMEM (Gibco, Thermo Fisher, Saint Louis, MO, USA) containing 10% FBS, penicillin (100 U/mL) and streptomycin ([…]) at 37 °C, with a humidified atmosphere at 5% CO2. pGL3-NFAT-luc-HEK293 stable clones were generated by co-transfections of pGL3-NFAT-luc and tgCMV/HyTK plasmids (50:1), the latter harboring the hygromycin phosphotransferase gene, using Lipofectamine LTX according to supplier’s protocols (Thermo Fisher, Saint Louis, MO, USA). Initially, HEK293 cells were selected using DMEM containing 400 μg/mL hygromycin B (Sigma, Darmstadt, Germany) in 24-well plates for two weeks; 24 colonies were further grown out in 96-well plates under reduced hygromycin selection (200 µg/mL) for three weeks. Potentially resistant NFAT-luc-HEK293 clones (n = 22) were validated after incubation in assay medium (DMEM + 1% FBS) containing PMA or Ionomycin (Sigma, Darmstadt, Germany) for 18 h (triplicates, 50,000 cells/well). Luciferase activity was quantified with ONE-Glo™ EX Reagent Kit (Promega, Madison, WI, USA) using a 96-microplate TECAN reader (Trading AG, Switzerland).
saT1Rs (saT1R1, saT1R2a, saT1R2b saT1R3) and saGαi1-2 genes were RT-PCR amplified using 5’ and 3’ flanking primers carrying HindIII and XhoI restriction sites, respectively. Gel-purified fragments were cloned into pGEM-T Easy vectors, re-sequenced, digested and subcloned into pcDNA™3 (Invitrogen, Carlsbad, CA, USA). Effective saT1R cloning into pcDNA™3 was further verified by HindIII/XhoI digestion. Transient co-transfections were done in 6-well plates (confluence ~70–80%) using 100 μL of reduced serum medium (Opti-MEM, Gibco, Thermo Fisher, Saint Louis, MO, USA) containing 150 ng of each selected pcDNA™3 construct, 1:10 charge ratio of Enhanced Green Fluorescent expressing construct (EGFP; positive control), and pBluescript II SK (+) vector DNA (Addgene, Watertown, MA, USA) up to 1 µg of totally transfected DNA. Following 24 h incubation, cells were washed with fresh standard medium and plated in polylysine treated plates for additional 24 h. Cells were then stimulated with L-AAs and sugar compounds for 18 h in a reduced assay medium (BME w/o L-glutamate; Gibco, Thermo Fisher, Saint Louis, MO, USA) + 1% FBS), to prevent unspecific Ca^2+/NFAT signaling activation and potential saT1R desensitization. All L-AAs and sugars used for in vitro experiments were obtained from Merck KGaA (Darmstadt, Germany).

Compound	T1R1/R3 [MSD] maximum stimulation dose
C[C@H](N)C(=O)O [Ala, Alanine]	1,00 × 10^-1 M
N=C(N)NCCC[C@H](N)C(=O)O [Arg, Arginine]	1,00 × 10^-5 M
NC(=O)C[C@H](N)C(=O)O [Asn, Asparagine]	1,00 × 10^-1 M
N[C@@H](CC(=O)O)C(=O)O [Asp, Aspartic acid]	1,00 × 10^-5 M
N[C@@H](CS)C(=O)O [Cys, Cysteine]	1,00 × 10^-4 M
NC(=O)CC[C@H](N)C(=O)O [Gln, Glutamine]	1,00 × 10^-1 M
N[C@@H](CCC(=O)O)C(=O)O [Glu, Glutamic acid]	1,00 × 10^-2 M
NCC(=O)O [Gly, Glycine]	1,00 × 10^-1 M
N[C@@H](Cc1c[nH]cn1)C(=O)O [His, Histidine]	1,00 × 10^-5 M
CC[C@H](C)[C@H](N)C(=O)O [Ile, Isoleucine]	1,00 × 10^-1 M
CC(C)C[C@H](N)C(=O)O [Leu, Leucine]	1,00 × 10^-1 M
NCCCC[C@H](N)C(=O)O [Lys, Lysine]	1,00 × 10^-3 M
CSCC[C@H](N)C(=O)O [Met, Methionine]	1,00 × 10^-1 M
N[C@@H](Cc1ccccc1)C(=O)O [Phe, Phenylalanine]	1,00 × 10^-2 M
O=C(O)[C@@H]1CCCN1 [Pro, Proline]	1,00 × 10^-1 M
N[C@@H](CO)C(=O)O [Ser, Serine]	1,00 × 10^-1 M
C[C@@H](O)[C@H](N)C(=O)O [Thr, Threonine]	1,00 × 10^-1 M
N[C@@H](Cc1c[nH]c2ccccc12)C(=O)O [Trp, Tryptophan]	1,00 × 10^-3 M
N[C@@H](Cc1ccc(O)cc1)C(=O)O [Tyr, Tyrosine]	1,00 × 10^-3 M
CC(C)[C@H](N)C(=O)O [Val, Valine]	1,00 × 10^-1 M

System: pGL3-NFAT-luc-HEK293 (Cl.3) cells
Experiment: not given
Format: cell-based
Conditions: not given
Source text: BL (Basal Levels) = 100% RLU. Different lowercase letters (a,b,c) on top of bars indicate significant differences (p < 0.05) between concentrations, assessed by one-way ANOVA followed by Tukey’s Multiple Comparison Test (GraphPad Prism version 5.00).

Compound	doses toxic for the cells and/or inhibiting their stimulation
OC[C@H]1OC(O)[C@H](O)[C@@H](O)[C@@H]1O (stereo partly drawn) [D-Glucose]	300 to 500 mM
